# According to patent US10449200B2, “Combined inhibition of the vitamin D receptor and poly(ADP) ribose polymerase (PARP) in the treatment of cancer” (Institute for Cancer Research, priority 2014, dated 2019):
# Read-outs that look alike come from different tables or passages of the source.
# Legend:
# BxPC3 cells [1] = test: Clonogenic survival assay, gemcitabine kill curves; assay type: cell-based, human
# Procedure: (§1) Cell culture and chemicals. Panc1, BxPC3, and CFPAC1 cells were purchased from American Type Culture Collection (ATCC) and banked in house until use. Cell lines were cultured in DMEM/10% FBS supplemented with 2 mM glutamine and 1% penicillin, streptomycin, and kanamycin (PSK) and were maintained at 37° C. in 5% CO2. Charcoal stripped (in house cell culture facility) and dialyzed FBS (Life Technologies; 509 26400-036) were used. Gemcitabine was obtained from the in house pharmacy. Rucaparib and trichostatin A were gifts.
# (§2) Cell viability assays. For clonogenic assays, 1000 cells per well were seeded into 6 well plates on day 0. Cells were treated with gemcitabine at various doses on day 1 for 24 hours, Gemcitabine was washed out on day 2, and cells were allowed to grow for a subsequent 10 days before being fixed (10% methanol+10% acetic acid) and stained with crystal violet (0.4% in 20% ethanol) for colony counting and quantitation. For Rucaparib clonogenic assays, the drug was added at various doses 24 hours after cell plating, and cells were allowed to grow for a subsequent 10 days in the presence of Rucaparib. For TSA clonogenic assays, the drug was added for 4 hours prior to addition of gemcitabine or vehicle for another 18 hours before drugs were washed away, and cells were allowed to grow in drug-free medium for 10 days.
# Panc1 cells [2] = test: Clonogenic survival assay, gemcitabine; assay type: cell-based, human; conditions: for IC50: Homo sapiens
# Procedure: as §1, §2
# CFPAC1 cells = test: Clonogenic survival assay, gemcitabine kill curves; assay type: cell-based; conditions: Homo sapiens
# Procedure: as §1, §2
# BxPC3 cells [3] = test: TSA clonogenic assay (TSA + gemcitabine); assay type: cell-based; conditions: Homo sapiens
# Procedure: as §2
# To test the functional relevance of the TSA mediated Rad51 foci formation in the VDR knockdown cells, whether TSA altered the sensitivity to gemcitabine was investigated. […] Parental cell sensitivity to gemcitabine was increased by TSA treatments at the concentrations tested (p=0.02).
# Panc1 cells [4] = test: Time-lapse microscopy of H2B:gfp cells; assay type: cell-based, human; conditions: gemcitabine 50 nM
# Procedure: Microscopy. For timelapse studies, Panc1 cells with stable expression of Histone H2B fused at its C-terminus to GFP were seeded into 6-well plates. 24 hours post cell plating, gemcitabine (50 nM) was added before timelapse was commenced. The plate was placed in a 37° C. chamber; bright-field and fluorescent images were taken every 5 minutes for 48 hours using a Nikon TE2000S microscope controlled by Metamorph (Molecular Devices). Three independent movies were conducted for each condition. Movies were allowed to commence for 48 hours for each independent experiment.
# Time-lapse microscopy was used to track the fates of gemcitabine-treated Panc1 cells that stably expressed a H2B:gfp fusion protein that labeled chromosomes. Cells were transfected with siRNAs, treated with vehicle or gemcitabine and monitored every 10 minutes for 48 hours (FIG. 2).
# VDR = test: Western blot of VDR expression after gemcitabine; assay type: cell-based, human; conditions: gemcitabine 50 nM 18 hrs
# Procedure: (§3) Western Blotting. BxPC3, Panc1, and CFPAC1 cells were treated with vehicle or gemcitabine (50 nM) for 18 hrs. Cells were harvested, washed in PBS and lysed in NP40 lysis buffer (1% NP40/PBS/10% glycerol) with protease and phosphatase inhibitors. Protein concentrations were determined with MicroBCA Assay (Pierce Biotechnology; 23224 and 23228) and then SDS sample buffer was added to the lysates. 40 μg of boiled lysates was separated by SDS-PAGE and then transferred onto Immobilon P membrane (Millipore; IPVH00010). Antibodies used for immunoblotting were obtained from: VDR (Epitomics; 3277-1), γH2AX (Upstate Biotechnologies, now Millipore; 05-636), Rad51 (Genetex; GTX70230, gift), p300 (Santa Cruz Biotechnologies; SC-584), and TAO1 kinase (Bethyl Labs; A300-524A).
# Next, the levels of VDR protein were compared in BxPC3, CFPAC1, and Panc1 cells to see if the amount of expression might correlate with gemcitabine sensitivity.
# BxPC3 cells [5] = test: Western blot of Rad51 and γH2AX in supernatant and chromatin fractions; assay type: cell-based, human; conditions: gemcitabine for 18 hours
# Procedure: as §3
smiles,measurement,setting,value
Nc1ccn([C@@H]2O[C@H](CO)[C@@H](O)C2(F)F)c(=O)n1 [gemcitabine],reduction in gemcitabine IC50 after depletion of VDR,BxPC3 cells [1]; BXPC3 cells,~3 fold
same,IC50,"BxPC3 cells [1]; BxPC3 VDRkd cells transfected with WT-VDR, read-out: IC50 gemcitabine",~260 nM
same,IC50,"BxPC3 cells [1]; Homo sapiens, BXPC-3, BxPC3, VDR siRNA, read-out: mean IC50 gemcitabine",~60 nM
same,IC50,"BxPC3 cells [1]; Homo sapiens, BXPC-3, BxPC3, control shRNA, read-out: IC50 gemcitabine",~80 nM
same,IC50,"BxPC3 cells [1]; Homo sapiens, BXPC-3, BxPC3, control siRNA, read-out: mean IC50 gemcitabine",~200 nM
same,IC50,"BxPC3 cells [1]; Homo sapiens, BXPC-3, BxPC3, p300 shRNA, read-out: IC50 gemcitabine",~40 nM
same,IC50,"BxPC3 cells [1]; Homo sapiens, BXPC-3, BxPC3 VDRkd cells transfected with WT-VDR, read-out: IC50 gemcitabine",~300 nM
same,IC50,"BxPC3 cells [1]; Homo sapiens, BXPC-3, BxPC3 VDRkd cells, WT-VDR co-transfected with AML1/ETO, read-out: IC50 gemcitabine",~80 nM
same,IC50,"BxPC3 cells [1]; Homo sapiens, BXPC-3, BxPC3 VDRkd cells, WT-VDR co-transfected with S237M mutant, read-out: IC50 gemcitabine",~60 nM
same,IC50,"BxPC3 cells [1]; Homo sapiens, BXPC-3, BxPC3 VDRkd cells, untransfected, read-out: IC50 gemcitabine",~50 nM
same,IC50,"BxPC3 cells [1]; Homo sapiens, BXPC-3, BxPC3 VDRkd cells, vector transfected, read-out: IC50 gemcitabine",~50 nM
same,IC50,"BxPC3 cells [1]; Homo sapiens, BXPC-3, BxPC3 cells (highest VDR levels), read-out: mean IC50 gemcitabine",~200 nM
same,increase of gemcitabine IC50 over vector controls,BxPC3 cells [1]; wild type VDR transfected into VDR depleted BXPC3 cells,~6 fold
same,IC50,"Panc1 cells [2]; PANC-1, Panc1, VDR knockdown (siRNA)",~18 nM
same,IC50,"Panc1 cells [2]; PANC-1, Panc1, control cells (control shRNA)",~19 nM
same,IC50,"Panc1 cells [2]; PANC-1, Panc1, control transfected",~30 nM
same,IC50,"Panc1 cells [2]; PANC-1, Panc1, p300 knockdown",~16 nM
same,IC50,"Panc1 cells [2]; PANC-1, Panc1 transfected with WT-VDR (overexpression)",~250 nM
same,IC50,"Panc1 cells [2]; PANC-1, Panc1 transfected with vector",~25 nM
same,IC50,"Panc1 cells [2]; PANC-1, Panc1 cells",~30 nM
same,cells survived (colony formation) compared to control samples treated with gemcitabine,"Panc1 cells [2]; Panc1, Chk1 siRNA, 50 nM gemcitabine 24 hours",3%
same,cells survived (colony formation) compared to control samples treated with gemcitabine,"Panc1 cells [2]; Panc1, VDR siRNA, 50 nM gemcitabine 24 hours",8%
same,"colony formation, vehicle versus gemcitabine","Panc1 cells [2]; Panc1, control siRNA, 50 nM gemcitabine 24 hours",did not differ significantly
same,increase of gemcitabine IC50 over controls,Panc1 cells [2]; Panc1 cells with increased VDR levels,~10 fold
same,IC50,"CFPAC1 cells; CFPAC-1, CFPAC1, VDR depleted (VDR siRNA), read-out: IC50 gemcitabine",~20 nM
same,IC50,"CFPAC1 cells; CFPAC-1, CFPAC1, control siRNA, read-out: mean IC50 gemcitabine",~45 nM
same,IC50,"CFPAC1 cells; CFPAC-1, CFPAC1 cells, read-out: IC50 gemcitabine",~45 nM
same,IC50,"BxPC3 cells [3]; BXPC-3, BxPC3 VDRkd cells, with TSA (500 nM), read-out: IC50 of gemcitabine",50 nM
same,IC50,"BxPC3 cells [3]; BXPC-3, BxPC3 VDRkd cells, without TSA, read-out: IC50 of gemcitabine",50 nM
same,IC50,"BxPC3 cells [3]; BXPC-3, BxPC3 parental cells, gemcitabine alone, read-out: IC50 gemcitabine",~200 nM
same,IC50,"BxPC3 cells [3]; BXPC-3, BxPC3 parental cells, gemcitabine plus TSA (500 nM), read-out: IC50 gemcitabine",100 nM
same,cell fate in 48 hour timelapse,"Panc1 cells [4]; Panc1, Chk1 knockdown",enter mitosis where many died or died shortly after exit from mitosis
same,cell fate in 48 hour timelapse,"Panc1 cells [4]; Panc1, VDR siRNA","never entered mitosis, but nevertheless died"
same,cell fate in 48 hour timelapse,"Panc1 cells [4]; Panc1, control siRNA",stopped proliferation
same,VDR levels after overnight treatment with gemcitabine,VDR; BXPC3 cells,No noticeable increase
same,VDR levels after overnight treatment with gemcitabine,VDR; CFPAC1 cells,increased
same,VDR levels after overnight treatment with gemcitabine,VDR; Panc1 cells,increased
same,"Rad51 and H2AX in whole cell extracts (supernatants), parental versus BxPC3 VDRkd",BxPC3 cells [5],equivalent amounts
same,"Rad51 and phospho-γH2AX in chromatin fractions, VDRkd compared to parental BxPC3",BxPC3 cells [5],very low amounts
